From publication PMC10726358 (Journal of Medicinal Chemistry, 2023)
Read-outs that look alike come from different tables or passages of the source.

Experiments:
BRD4 BD2 = BRD4 BD2 TR-FRET assay; format: binding, human
Experimental: As a strategic decision, every compound synthesized across all of GSK’s bromodomain research projects was tested in both a BRD4 BD1 and a BRD4 BD2 TR-FRET assay as part of tier 1 data generation. […] LipE is a straightforward, yet powerful metric for medicinal chemistry teams to normalize potency relative to lipophilicity, a critical factor both for parameters of the human dose equation and also for promiscuity.[43],[44] To aid interpretation, diagonal lines representing different LipE values are shown, with the most desirable space found toward the top left-hand area of the plot representing molecules with the comparatively highest potency per unit of lipophilicity.
(§1) All TR-FRET and hWB cytokine assays have been described previously.[54]

MCP-1 = experiment: LPS-stimulated human whole blood (hWB) MCP-1 release assay; format: cell-based
Text: The utility of a chemical probe in target validation is directly related to its quality, with important publications detailing requirements to aid researchers.[36]−[38] […] It was accepted that selectivity would be judged initially through a mutant BRD4 TR-FRET assay and would likely shift depending on the protein construct and assay format. […] Previous studies have shown that BET BD1 inhibition is sufficient to inhibit in vitro production of MCP-1 in LPS-stimulated hWB and, as such, served as a relevant measure of cellular target engagement and, concomitantly, proof of cellular permeability.[12],[39] Selectivity over other human bromodomains outside of the BET family, known collectively as non-BET bromodomains, was also required,[40] with a ≥ 100-fold selectivity window targeted. To ensure the molecules remained within developable chemical space, a target property forecast index (PFI) as defined by chromLogDpH7.4 + number of aromatic rings ≤6 was set.[41]
To understand cellular target engagement, 21 was tested in an LPS-stimulated hWB assay measuring inhibition of the inflammatory mediator MCP-1 secretion.
as §1

BRDT BD1 = BRDT BD1 (Homo sapiens, UniProt Q58F21); experiment: BRDT BD1 TR-FRET assay; format: binding
Experimental: (§2) The BRD4 BD1/BD2 TR-FRET assay had been used routinely for this optimization work, and in order to better understand the BET BD1 domain selectivity profile, 31 was tested in TR-FRET BRD2, BRD3, and BRDT assays.
as §1

BRD2 BD1 = BRD2 BD1 (Homo sapiens, UniProt P25440); experiment: BROMOscan BRD2 BD1; format: binding
Chain of BRD2 BD1 (P25440 74-180 limits assumed): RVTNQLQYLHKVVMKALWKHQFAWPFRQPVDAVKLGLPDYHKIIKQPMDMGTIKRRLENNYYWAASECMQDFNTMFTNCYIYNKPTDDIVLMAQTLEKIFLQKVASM
Experimental: as §2
(§3) [52] BROMOscan recombinant protein binding assays were carried out at DiscoverX. (accessed April 4, 2023).

BRD3 BD2 = BRD3 BD2 (Homo sapiens, UniProt Q15059); experiment: BROMOscan BRD3 BD2; format: binding
Experimental: as §2, §3

BAZ2A = biological target: T1, BAZ2A (Homo sapiens, UniProt Q9UIF9); experiment: BROMOscan BAZ2A; format: binding
T1 construct: ≥2000-fold selectivity over all 20 non-BET bromodomains tested; purchased DiscoverX
T1 sequence (Q9UIF9 1793-1897 limits assumed): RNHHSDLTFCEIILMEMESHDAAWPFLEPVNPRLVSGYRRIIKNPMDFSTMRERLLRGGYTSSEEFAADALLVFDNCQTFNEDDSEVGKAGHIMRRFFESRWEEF
Experimental: as §2, §3

BRD7 = biological target: T2, BRD7 (Homo sapiens, UniProt Q9NPI1); experiment: BROMOscan BRD7; format: binding
T2 construct: ≥2000-fold selectivity over all 20 non-BET bromodomains tested; purchased DiscoverX
T2 sequence (Q9NPI1 131-235 limits assumed): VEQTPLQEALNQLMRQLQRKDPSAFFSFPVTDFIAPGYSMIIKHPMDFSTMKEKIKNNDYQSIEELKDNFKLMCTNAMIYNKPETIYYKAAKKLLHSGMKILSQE
Experimental: as §2, §3

BRD8 BD2 = biological target: T3, BRD8 BD2 (Homo sapiens, UniProt Q9H0E9); experiment: BROMOscan BRD8 BD2; format: binding
T3 construct: BRD8 BD2; purchased DiscoverX
T3 sequence (Q9H0E9 1099-1207 limits assumed): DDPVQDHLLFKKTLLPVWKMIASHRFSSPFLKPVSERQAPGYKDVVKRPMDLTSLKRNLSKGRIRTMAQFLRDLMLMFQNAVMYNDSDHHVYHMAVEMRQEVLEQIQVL
Experimental: as §2, §3

CECR2 = biological target: T4, CECR2 (Homo sapiens, UniProt Q9BXF3); experiment: BROMOscan CECR2; format: binding
T4 construct: ≥2000-fold selectivity over all 20 non-BET bromodomains tested; purchased DiscoverX
T4 sequence (Q9BXF3 434-538 limits assumed): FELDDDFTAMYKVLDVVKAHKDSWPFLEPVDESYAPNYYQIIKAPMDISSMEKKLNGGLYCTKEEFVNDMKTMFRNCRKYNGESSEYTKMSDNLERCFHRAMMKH
Experimental: as §2, §3

PBRM1 BD2 = biological target: T5, PBRM1 BD2 (Homo sapiens, UniProt Q86U86); experiment: BROMOscan PBRM1 BD2; format: binding
T5 construct: PBRM1 BD2; purchased DiscoverX
T5 sequence (Q86U86 177-287 limits assumed): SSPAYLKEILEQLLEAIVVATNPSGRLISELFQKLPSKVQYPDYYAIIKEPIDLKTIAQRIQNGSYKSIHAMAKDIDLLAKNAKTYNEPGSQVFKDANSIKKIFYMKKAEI
Experimental: as §2, §3

PBRM1 BD5 = biological target: T6, PBRM1 BD5 (Homo sapiens, UniProt Q86U86); experiment: BROMOscan PBRM1 BD5; format: binding
T6 construct: PBRM1 BD5; purchased DiscoverX
T6 sequence (Q86U86 653-763 limits assumed): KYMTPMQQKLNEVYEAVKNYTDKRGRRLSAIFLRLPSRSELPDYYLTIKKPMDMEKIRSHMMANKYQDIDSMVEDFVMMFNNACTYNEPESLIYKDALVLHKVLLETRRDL
Experimental: as §2, §3

SMARCA2 = biological target: T7, SMARCA2 (Homo sapiens, UniProt P51531); experiment: BROMOscan SMARCA2; format: binding
T7 construct: ≥2000-fold selectivity over all 20 non-BET bromodomains tested; purchased DiscoverX
Experimental: as §2, §3

[1] = tested on: pharmacologically relevant off-targets; experiment: GSK enhanced cross-screening panel (whole panel); conditions: no activity at the concentrations tested
Beta2 Adrenoceptor = biological target: T8, Beta2 Adrenoceptor (Homo sapiens, UniProt P07550); experiment: Cross screening: Beta2 Adrenoceptor Human Agonist; format: biochemical
T8 construct: purchased GSK enhanced cross-screening panel (in-house)
T8 sequence (P07550 whole entry): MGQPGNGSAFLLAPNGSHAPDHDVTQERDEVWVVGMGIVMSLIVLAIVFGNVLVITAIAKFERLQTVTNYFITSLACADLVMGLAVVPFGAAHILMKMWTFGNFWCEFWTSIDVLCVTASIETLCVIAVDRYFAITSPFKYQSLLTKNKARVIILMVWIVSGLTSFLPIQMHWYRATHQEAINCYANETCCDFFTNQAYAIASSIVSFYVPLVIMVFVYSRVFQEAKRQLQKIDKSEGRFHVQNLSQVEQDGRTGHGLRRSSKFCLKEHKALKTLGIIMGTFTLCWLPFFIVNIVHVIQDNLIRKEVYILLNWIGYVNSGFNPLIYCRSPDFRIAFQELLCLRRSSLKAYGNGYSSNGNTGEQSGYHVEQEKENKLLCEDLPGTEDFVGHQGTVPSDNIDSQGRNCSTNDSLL

M2 (CHRM2) = biological target: T9, M2 (CHRM2) (Homo sapiens, UniProt P08172); experiment: Cross screening: M2 (CHRM2) Human Ag; format: biochemical
T9 construct: purchased GSK enhanced cross-screening panel (in-house)
T9 sequence (P08172 whole entry): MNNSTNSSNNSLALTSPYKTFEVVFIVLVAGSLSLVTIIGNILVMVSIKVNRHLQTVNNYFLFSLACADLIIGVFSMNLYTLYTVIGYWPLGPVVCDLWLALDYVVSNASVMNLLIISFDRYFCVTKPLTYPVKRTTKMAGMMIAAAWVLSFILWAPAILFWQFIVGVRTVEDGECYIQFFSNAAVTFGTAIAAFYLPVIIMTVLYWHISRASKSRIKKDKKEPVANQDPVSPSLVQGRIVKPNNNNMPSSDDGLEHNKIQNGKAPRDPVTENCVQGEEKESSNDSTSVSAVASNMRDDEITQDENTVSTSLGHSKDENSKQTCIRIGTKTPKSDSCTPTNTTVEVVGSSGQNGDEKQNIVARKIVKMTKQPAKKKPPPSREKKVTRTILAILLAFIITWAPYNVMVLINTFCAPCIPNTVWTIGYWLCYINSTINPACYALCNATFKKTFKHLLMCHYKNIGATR

CB1 = biological target: T10, CB1 (Homo sapiens, UniProt P21554); experiment: Cross screening: CB1 Agonist; format: biochemical
T10 construct: purchased GSK enhanced cross-screening panel (in-house)

MRGPRX2 = biological target: T11, MRGPRX2 (Homo sapiens, UniProt Q96LB1); experiment: Cross screening: MRGPRX2 Agonist; format: biochemical
T11 construct: purchased GSK enhanced cross-screening panel (in-house)
T11 sequence (Q96LB1 whole entry): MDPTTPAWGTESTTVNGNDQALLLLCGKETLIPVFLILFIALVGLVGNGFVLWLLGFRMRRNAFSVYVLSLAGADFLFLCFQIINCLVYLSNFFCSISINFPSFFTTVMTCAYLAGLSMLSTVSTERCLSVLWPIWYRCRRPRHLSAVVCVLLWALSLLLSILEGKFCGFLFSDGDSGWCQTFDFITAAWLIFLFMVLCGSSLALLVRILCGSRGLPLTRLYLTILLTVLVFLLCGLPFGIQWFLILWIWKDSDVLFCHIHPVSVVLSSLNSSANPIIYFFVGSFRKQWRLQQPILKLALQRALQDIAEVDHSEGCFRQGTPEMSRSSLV

5-HT2B = biological target: T12, 5-HT2B (Homo sapiens, UniProt P41595); experiment: Cross screening: 5-HT2B Agonist; format: biochemical
T12 construct: purchased GSK enhanced cross-screening panel (in-house)

Alpha 1 nAChR = biological target: T13, Alpha 1 nAChR (Homo sapiens, UniProt P02708+P07510+Q07001); experiment: Cross screening: Alpha 1 nAChR Agonist; format: biochemical
T13 construct: purchased GSK enhanced cross-screening panel (in-house)

OPRM1 = biological target: T14, OPRM1 (Homo sapiens, UniProt P35372); experiment: Cross screening: OPRM1 Agonist; format: biochemical
T14 construct: purchased GSK enhanced cross-screening panel (in-house)

Kv1.5 (KCNA5) = biological target: T15, Kv1.5 (KCNA5) (Homo sapiens, UniProt P22460); experiment: Cross screening: Kv1.5 (KCNA5) blocker; format: biochemical
T15 construct: purchased GSK enhanced cross-screening panel (in-house)

Cyclooxygenase 2 (COX-2) = biological target: T16, Cyclooxygenase 2 (COX-2) (Homo sapiens, UniProt P35354); experiment: Cross screening: Cyclooxygenase 2 (COX-2) antagonist; format: biochemical
T16 construct: purchased GSK enhanced cross-screening panel (in-house)
T16 sequence (P35354 18-604): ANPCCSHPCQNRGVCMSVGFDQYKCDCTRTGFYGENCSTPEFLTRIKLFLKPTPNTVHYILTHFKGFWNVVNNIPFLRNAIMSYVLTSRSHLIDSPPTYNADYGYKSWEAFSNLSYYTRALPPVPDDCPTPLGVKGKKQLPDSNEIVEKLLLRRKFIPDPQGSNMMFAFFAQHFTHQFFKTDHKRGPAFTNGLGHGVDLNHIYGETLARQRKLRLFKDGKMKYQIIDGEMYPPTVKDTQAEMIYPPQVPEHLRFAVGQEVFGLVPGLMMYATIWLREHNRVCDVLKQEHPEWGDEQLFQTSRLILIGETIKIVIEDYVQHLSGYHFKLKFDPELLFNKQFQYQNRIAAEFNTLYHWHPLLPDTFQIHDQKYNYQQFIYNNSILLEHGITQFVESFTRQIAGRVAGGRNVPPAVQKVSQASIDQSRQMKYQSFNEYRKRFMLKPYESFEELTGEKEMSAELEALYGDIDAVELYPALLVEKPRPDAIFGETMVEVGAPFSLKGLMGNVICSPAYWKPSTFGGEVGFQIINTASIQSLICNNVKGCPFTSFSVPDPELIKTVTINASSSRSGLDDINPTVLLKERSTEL

NET = biological target: T17, NET (Homo sapiens, UniProt P23975); experiment: Cross screening: NET blocker; format: biochemical
T17 construct: purchased GSK enhanced cross-screening panel (in-house)
T17 sequence (P23975 whole entry): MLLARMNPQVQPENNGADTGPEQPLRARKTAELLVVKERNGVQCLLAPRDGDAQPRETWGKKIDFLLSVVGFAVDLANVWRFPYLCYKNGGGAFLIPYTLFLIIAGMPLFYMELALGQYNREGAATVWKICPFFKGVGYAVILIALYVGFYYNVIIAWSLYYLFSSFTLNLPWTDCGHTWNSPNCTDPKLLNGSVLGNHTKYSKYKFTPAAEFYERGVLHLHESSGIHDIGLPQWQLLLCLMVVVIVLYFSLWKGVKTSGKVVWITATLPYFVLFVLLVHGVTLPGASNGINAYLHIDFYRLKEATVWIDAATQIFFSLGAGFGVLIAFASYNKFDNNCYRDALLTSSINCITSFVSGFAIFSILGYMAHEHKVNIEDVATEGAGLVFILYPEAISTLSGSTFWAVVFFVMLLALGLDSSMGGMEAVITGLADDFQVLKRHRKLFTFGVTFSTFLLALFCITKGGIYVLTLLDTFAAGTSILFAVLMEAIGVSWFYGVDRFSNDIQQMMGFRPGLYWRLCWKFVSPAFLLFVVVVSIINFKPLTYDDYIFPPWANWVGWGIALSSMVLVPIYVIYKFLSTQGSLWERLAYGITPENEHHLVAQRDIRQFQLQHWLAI

SERT = biological target: T18, SERT (Homo sapiens, UniProt P31645); experiment: Cross screening: SERT blocker; format: biochemical
T18 construct: purchased GSK enhanced cross-screening panel (in-house)

Alpha 1B = biological target: T19, Alpha 1B (Homo sapiens, UniProt P35368); experiment: Cross screening: Alpha 1B antagonist; format: biochemical
T19 construct: purchased GSK enhanced cross-screening panel (in-house)
T19 sequence (P35368 whole entry): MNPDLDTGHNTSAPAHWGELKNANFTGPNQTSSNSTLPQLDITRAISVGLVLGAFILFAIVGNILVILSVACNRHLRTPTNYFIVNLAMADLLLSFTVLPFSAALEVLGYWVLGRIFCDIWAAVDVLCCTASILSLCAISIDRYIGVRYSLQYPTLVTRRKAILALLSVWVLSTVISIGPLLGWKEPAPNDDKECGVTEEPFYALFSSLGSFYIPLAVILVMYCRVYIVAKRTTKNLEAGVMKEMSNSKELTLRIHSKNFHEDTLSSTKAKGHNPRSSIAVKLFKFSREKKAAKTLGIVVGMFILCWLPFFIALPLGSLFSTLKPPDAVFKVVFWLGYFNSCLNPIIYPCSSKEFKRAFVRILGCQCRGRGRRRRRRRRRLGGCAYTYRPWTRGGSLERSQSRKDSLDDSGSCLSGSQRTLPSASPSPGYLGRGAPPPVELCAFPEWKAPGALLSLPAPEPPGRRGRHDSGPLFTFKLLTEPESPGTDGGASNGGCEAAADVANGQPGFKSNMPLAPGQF

BET BD1 = experiment: BET family BD1/BD2 profiling (TR-FRET, BROMOscan); format: binding, human
Experimental: as §2, §1, §3

PXR = PXR (Homo sapiens, UniProt O75469); experiment: Cross screening: PXR Human Agonist
Chain of PXR (O75469 whole entry): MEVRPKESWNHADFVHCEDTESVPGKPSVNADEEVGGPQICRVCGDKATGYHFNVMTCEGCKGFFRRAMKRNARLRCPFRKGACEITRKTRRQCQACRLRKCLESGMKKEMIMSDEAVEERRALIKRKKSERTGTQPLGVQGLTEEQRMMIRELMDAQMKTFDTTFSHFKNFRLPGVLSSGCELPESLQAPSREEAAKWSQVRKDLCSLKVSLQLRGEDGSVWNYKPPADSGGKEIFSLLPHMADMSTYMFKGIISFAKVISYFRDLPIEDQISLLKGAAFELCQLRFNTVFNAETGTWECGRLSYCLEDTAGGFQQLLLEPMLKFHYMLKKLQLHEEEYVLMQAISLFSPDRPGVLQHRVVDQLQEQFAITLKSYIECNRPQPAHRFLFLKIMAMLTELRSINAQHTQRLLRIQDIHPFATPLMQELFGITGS

OATP1B1 = OATP1B1 (Homo sapiens, UniProt Q9Y6L6); experiment: Cross screening: OATP1B1 inhibitor
Chain of OATP1B1 (Q9Y6L6 whole entry): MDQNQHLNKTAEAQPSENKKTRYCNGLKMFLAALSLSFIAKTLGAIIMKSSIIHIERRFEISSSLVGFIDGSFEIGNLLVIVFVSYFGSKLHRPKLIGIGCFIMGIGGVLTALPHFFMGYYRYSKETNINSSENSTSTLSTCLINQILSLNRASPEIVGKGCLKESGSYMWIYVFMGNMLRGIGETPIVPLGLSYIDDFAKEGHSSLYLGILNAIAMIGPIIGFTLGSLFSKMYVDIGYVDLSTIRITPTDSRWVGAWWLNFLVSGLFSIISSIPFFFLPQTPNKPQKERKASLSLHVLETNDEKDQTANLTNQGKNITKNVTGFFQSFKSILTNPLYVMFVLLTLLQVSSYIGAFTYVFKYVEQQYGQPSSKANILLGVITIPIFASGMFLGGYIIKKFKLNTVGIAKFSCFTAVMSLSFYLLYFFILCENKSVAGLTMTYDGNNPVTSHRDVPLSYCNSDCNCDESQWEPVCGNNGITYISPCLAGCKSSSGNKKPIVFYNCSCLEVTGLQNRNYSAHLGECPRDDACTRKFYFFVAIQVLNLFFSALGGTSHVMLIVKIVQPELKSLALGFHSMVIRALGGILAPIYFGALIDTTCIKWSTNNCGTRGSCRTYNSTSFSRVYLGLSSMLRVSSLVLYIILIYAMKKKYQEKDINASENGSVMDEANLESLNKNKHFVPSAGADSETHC

CYP3A4 = CYP3A4 (Homo sapiens, UniProt P08684); experiment: Cross screening: CYP3A4 inhibition

SMILES: Cc1cc(-c2nc3ccccc3n2C[C@@H]2CCCN(C(=O)C3CCN(C(C)C)CC3)C2)cn(C)c1=O [Compound 31, (S)-5-(1-((1-(1-Isopropylpiperidine-4-carbonyl)piperidin-3-yl)methyl)-1H-benzo [d]imidazole-2-yl)-1,3-dimethylpyridin-2(1H)-one]
- BRD4 BD2 FRET pIC50 (BRD4 BD2): 4.8
- IC50 (MCP-1; Homo sapiens, read-out: hWB MCP-1 IC50): 0.126 µM
- IC50 (MCP-1; LPS-stimulated human whole blood, read-out: hWB MCP-1 pIC50 (converted)): 0.126 µM
- BRDT BD1 TR-FRET pIC50 (BRDT BD1): 7.3
- fold selectivity BRDT BD1 over BD2 (BRDT BD1; TR-FRET): 630 fold
- BROMOscan pKd BRD2 BD1 (BRD2 BD1): 8.5
- fold selectivity BRD2 BD1 over BD2 (BRD2 BD1; BROMOscan): 1000 fold
- BROMOscan pKd BRD3 BD2 (BRD3 BD2): 5.8
- Kd (BAZ2A): > 31.6 µM
- Kd (BRD7): > 31.6 µM
- Kd (BRD8 BD2): > 31.6 µM
- Kd (CECR2): > 31.6 µM
- Kd (PBRM1 BD2): > 31.6 µM
- Kd (PBRM1 BD5): > 31.6 µM
- Kd (SMARCA2): > 31.6 µM
- XC50 in enhanced cross-screening panel [1]: > 25 µM
- pXC50 in enhanced cross-screening panel [1]: < 4.6
- pXC50 Beta2 Adrenoceptor Human Agonist (Beta2 Adrenoceptor): < 4.0
- pXC50 M2 (CHRM2) Human Ag (M2 (CHRM2)): < 4.3
- pXC50 CB1 Agonist (CB1): < 4.0
- pXC50 MRGPRX2 Agonist (MRGPRX2): < 4.0
- pXC50 5-HT2B Agonist (5-HT2B): < 4.0
- pXC50 Alpha 1 nAChR Agonist (Alpha 1 nAChR): < 4.2
- pXC50 OPRM1 Agonist (OPRM1): < 4.0
- pXC50 Kv1.5 (KCNA5) blocker (Kv1.5 (KCNA5)): < 4.3
- pXC50 Cyclooxygenase 2 (COX-2) antagonist (Cyclooxygenase 2 (COX-2)): < 4.0
- pXC50 NET blocker (NET): < 4.0
- pXC50 SERT blocker (SERT): < 4.0
- pXC50 Alpha 1B antagonist (Alpha 1B): < 4.6
- BD1 domain selectivity over BD2 across the four isoforms (BET BD1; TR-FRET BRD2, BRD3, BRD4, BRDT): at least 400 fold
- BET BD1 domain selectivity (BET BD1; depending on protein and assay format): 300–1000 fold
- pXC50 PXR Human Agonist (PXR): < 4.3
- pXC50 OATP1B1 inhibitor (OATP1B1): < 4.3
- pXC50 CYP3A4 inhibition (CYP3A4): 4.1
